Entries after “also recorded” stand apart in the source; their conditions may differ.
What was measured:
[1] = test system: diet-induced mouse model of obesity; assay: Experiment II: diet-induced mouse model of obesity, food intake and body weight; format: in vivo, male C57BL/6J mice; settings: 10 mg/kg for 36 days
From the text: (§1) The following experiment involved a diet-induced mouse model of obesity. In particular, male C57BL/6J mice (these wildtype mice are genetically distinct from ob/ob and db/db mice and are not leptin-deficient) were placed on a high fat diet (HFD) or control diet (CON) at 8 wks of age, and MnTBAP or vehicle administration was initiated 6 months later, when all mice were at a steady state body weight. Mice receiving the CON diet served as lean control animals to those receiving the HFD. Each of the CON and HFD mice groups were then further divided into two groups. One of the CON and HFD groups was treated with 10 mg MnTBAP/kg of body weight for 36 days, and the other groups received a vehicle for 36 days. Food intake was measured on days 0, 3, 9, 14 and 35 post-treatment.

[2] = test system: diet-induced mouse model of obesity; assay: Experiment I: diet-induced mouse model of obesity, body weight, fat pad weights, caloric intake; format: in vivo, male C57BL/6J mice
From the text: The following experiment involved a diet-induced mouse model of obesity. In particular, male C57BL/6J mice (these wildtype mice are genetically distinct from ob/ob and db/db mice and are not leptin-deficient) were placed on a high fat diet (HFD) or control diet (CON) at 8 wks of age, and MnTBAP or vehicle administration was initiated 5 months later, when all mice were at a steady state body weight. Mice receiving the CON diet served as lean control animals to those receiving the HFD diet. Each of the CON and HFD mice groups were then further divided into two groups. One of the CON and HFD groups was treated with 10 mg MnTBAP/kg of body weight for 30 days, and the other groups received a vehicle for 30 days. The term “vehicle” refers to the solvent used to deliver MnTBAP. In this experiment, MnTBAP was dissolved in 2% bicarbonate (pH 8.0) to a final concentration of 2 mg/mL. Vehicle-treated mice received a volume of vehicle that would have been sufficient to deliver 10 mg of MnTBAP per kg of body weight were the compound present. MnTBAP was purchased from A.G. Scientific Inc., San Diego, Calif. […] The above-identified doses of MnTBAP and vehicle were administered to the mice as daily intraperitoneal injections.
At the start of the treatment, there were no significant differences in body weight between MnTBAP and vehicle groups within each diet (CON: p=0.99; HFD: p=0.77). In addition, HFD mice were dramatically heavier than CON mice at the start of treatment (p<0.001).
Before and after treatment, insulin sensitivity (IS) was assessed using an insulin-assisted glucose tolerance test (IA-GTT) after a 16-hour fast. Fasting body weights were measured at the end of each fast just prior to initiation of the IA-GTT. Approximately 5-7 days after the post-treatment IA-GTT, mice were stimulated with insulin ten minutes prior to delivery of an anesthetic cocktail to induce deep anesthesia for harvesting of quadriceps, tibialis anterior, soleus, gastrocnemius, subcutaneous white adipose tissue (SWAT), epididymal white adipose tissue (EWAT), and liver. In addition, SWAT and EWAT weights were measured immediately after harvest. Tissues were snap frozen in liquid nitrogen and stored at −80° C. until analysis. One quadriceps muscle from each mouse was homogenized for biochemical analyses.
Fasting body weights; fed-state body weights; and plasma glucose levels at various times during the IA-GTT, a test used to assess insulin sensitivity, were compared after treatment using a 2×2 analysis of variance (ANOVA) with repeated measures. Here “repeated measures” refers to the time of glucose measurement during the IA-GTT: 0, 15, 30, 45, 60 min. Subcutaneous white adipose tissue weights; epididymal white tissue adipose weights; caloric consumption; and all biochemical data, such as UCP-2, UCP-3, and PKB expression, were compared using a 2×2 ANOVA without repeated measures.

[3] = test system: diet-induced mouse model of obesity; assay: Experiment I: insulin-assisted glucose tolerance test (IA-GTT), insulin sensitivity; format: in vivo, male C57BL/6J mice; settings: HFD mice, 10 mg/kg daily, after 16-hour fast
From the text: (§2) The following experiment involved a diet-induced mouse model of obesity. In particular, male C57BL/6J mice (these wildtype mice are genetically distinct from ob/ob and db/db mice and are not leptin-deficient) were placed on a high fat diet (HFD) or control diet (CON) at 8 wks of age, and MnTBAP or vehicle administration was initiated 5 months later, when all mice were at a steady state body weight. Mice receiving the CON diet served as lean control animals to those receiving the HFD diet. Each of the CON and HFD mice groups were then further divided into two groups. One of the CON and HFD groups was treated with 10 mg MnTBAP/kg of body weight for 30 days, and the other groups received a vehicle for 30 days. The term “vehicle” refers to the solvent used to deliver MnTBAP. In this experiment, MnTBAP was dissolved in 2% bicarbonate (pH 8.0) to a final concentration of 2 mg/mL. Vehicle-treated mice received a volume of vehicle that would have been sufficient to deliver 10 mg of MnTBAP per kg of body weight were the compound present. […]
(§3) Before and after treatment, insulin sensitivity (IS) was assessed using an insulin-assisted glucose tolerance test (IA-GTT) after a 16-hour fast. Fasting body weights were measured at the end of each fast just prior to initiation of the IA-GTT. […] In addition, SWAT and EWAT weights were measured immediately after harvest. […]

[4] = test system: uncoupling protein-3 (UCP3); assay: Experiment I: UCP3 expression in skeletal muscle (quadriceps); format: in vivo, male C57BL/6J mice
From the text: as §2, §3

[5] = cited from earlier work
protein kinase B (PKB) = assay: Experiment I: PKB activity and expression in skeletal muscle (quadriceps); format: in vivo, male C57BL/6J mice
From the text: as §1, with “initiated 5” for “initiated 6”, “the HFD diet.” for “the HFD.”, “for 30” for “for 36”, “days. […]” for “days. Food intake was measured on days 0, 3, 9, 14 and 35 post-treatment.”
as §3
In addition to affecting weight loss, MnTBAP has been shown by the above experiment to increase insulin sensitivity. […] It is noted that HFD mice were very insulin resistant before treatment (p<0.001), but a main effect for diet after treatment (p=0.3) was not detected, a result that underscores MnTBAP's effect on insulin action.

[6] = many in ob/ob mice, younger mice; cited from earlier work
[7] = both CON and HFD mice, 10 mg/kg daily i.p. for 30 days
[8] = HFD mice, quadriceps, 10 mg/kg daily for four weeks

O=C(O)c1ccc(-c2c3nc(c(-c4ccc(C(=O)O)cc4)c4ccc([n-]4)c(-c4ccc(C(=O)O)cc4)c4nc(c(-c5ccc(C(=O)O)cc5)c5ccc2[n-]5)C=C4)C=C3)cc1.[Mn+3] [MnTBAP, manganese [III] tetrakis (4-benzoic acid) porphyrin]
body weight and fat mass compared to vehicle-treated controls ([1]; CON mice): lost a significant amount | food intake vs vehicle ([1]; CON mice, days 0, 3, 9, 14 and 35): did not differ | decrease in caloric intake over the course of the study ([1]; HFD mice): 16.6% | food intake compared to vehicle-treated controls ([1]; HFD mice): markedly decreased food intake | share of weight loss due to decreased SWAT and EWAT fat deposits ([2]; 10 mg/kg daily i.p. for 30 days): approximately 50% | treatment time until significant weight loss, fed state ([2]; CON mice, 10 mg/kg daily i.p.): 27 days | body weight less than vehicle-treated mice after treatment ([2]; CON mice, 10 mg/kg daily i.p. for 30 days, vs CON vehicle): 12.4% | treatment time until significant weight loss, fed state ([2]; HFD mice, 10 mg/kg daily i.p.): 15 days | weight loss after 30 days of treatment ([2]; HFD mice, 10 mg/kg daily i.p.): dramatic weight loss | body weight less than vehicle-treated mice after treatment ([2]; HFD mice, 10 mg/kg daily i.p. for 30 days, vs HFD vehicle): 18.6% | EWAT weight compared to vehicle [2, 7]: dramatic reductions | SWAT weight compared to vehicle [2, 7]: dramatic reductions | daily caloric intake [2, 7]: without affecting daily caloric intake | fasting body weight compared to vehicle [2, 7]: dramatic reductions | fasting body weight after treatment vs before treatment ([2]; both HFD and CON mice, 10 mg/kg daily i.p. for 30 days): lower than before treatment | insulin sensitivity (IA-GTT) [3]: significantly enhanced insulin sensitivity; also recorded: significantly improved insulin sensitivity | UCP3 levels ([4]; CON mice, skeletal muscle, 10 mg/kg daily): lack of a significant increase | UCP3 expression greater than vehicle [4, 8]: ~60% | adverse side effects ([5]; doses up to 10 mg/kg of body weight): no known adverse side effects | mortality rates and age of death ([5]; mice, up to a dose of 88 mg/kg of body weight): does not increase mortality rates or decrease age of death | PKB expression (protein kinase B (PKB); CON mice, 10 mg/kg daily): A statistically significant increase in PKB expression was not observed | increase in activity and expression of PKB vs vehicle (protein kinase B (PKB); [8]): ~60% | body weight change in known studies [6]: either no change in weight or slowed weight gain but did not induce weight loss

Source: US8987245B2, “Composition and method for affecting obesity and related conditions” (priority 2008, dated 2015)
